Source: patent US20100041103A1, “COMPOSITION AND METHOD FOR ENHANCING CELL GROWTH AND CELL FUSION” (DO-COOP TECHNOLOGIES LTD., priority 2007, published 2010)
Where a name gives a salt, the structure may show the parent alone. Ends that are not written are not given here.

Assays:
[1] = Dissolving CD-Dau, Daunorubicine and t-boc (Example 9); format: physicochemical
Method: 5 different glass vials were prepared: • 1. 5 mg CD-Dau+1.2 ml Neowater™. • 2. 1.8 mg CD-Dau+600 μl acetone. • 3. 1.8 mg CD-Dau+150 μl acetone+450 μl Neowater™ (25% acetone). • 4. 1.8 mg CD-Dau+600 μl 10% *PEG (Polyethylene Glycol). • 5. 1.8 mg CD-Dau+600 μl acetone+600 μl Neowater™.
The samples were vortexed and spectrophotometer measurements were performed on vials #1, 4 and 5
The vials were left opened in order to evaporate the acetone (vials #2, 3, and 5).
2 mg Daunorubicine+1 ml Neowater™ was prepared in one vial and 2 mg of Daunorubicine+1 ml RO was prepared in a second vial.
1.14 ml of EtOH was added to one glass vial containing 18.5 mg of t-boc (an oily material). This was then divided into two vials and 1.74 ml Neowater™ or RO water was added to the vials such that the solution comprised 25% EtOH. Following spectrophotometer measurements, the solvent was evaporated from the solution and Neowater™ was added to both vials to a final volume of 2.31 ml in each vial. The solutions in the two vials were merged to one clean vial and packaged for shipment under vacuum conditions.

[2] = cited from earlier work
[3] = Dissolving retinol in Neowater, absorbance and filtration (Example 12); format: physicochemical
Method: Retinol (vitamin A) was purchased from Sigma (Fluka, 99% HPLC). Retinol was solubilized in Neowater™ under the following conditions.
1% retinol (0.01 gr in 1 ml) in EtOH and Neowater™
0.5% retinol (0.005 gr in 1 ml) in EtOH and Neowater™
0.5% retinol (0.125 gr in 25 ml) in EtOH and Neowater™.
0.25% retinol (0.0625 gr in 25 ml) in EtOH and Neowater™. Final EtOH concentration: 1.5%
Absorbance spectrum of retinol in EtOM: Retinol solutions were made in absolute EtOH, with different retinol concentrations, in order to create a calibration graph; absorbance spectrum was detected in a spectrophotometer.
2 solutions with 0.25% and 0.5% retinol in Neowater with unknown concentration of EtOH were detected in a spectrophotometer. Actual concentration of retinol is also unknown since some oil drops are not dissolved in the water.
Filtration: 2 solutions of 0.25% retinol in Neowater™ were prepared, with a final EtOH concentration of 1.5%.The solutions were filtrated in […] filter.

293T cells = test: Cell viability assay, trypan blue count after taxol; format: cell-based; conditions: taxol dissolved in Neowater, 1.666 μM, 24 hour treatment
Method: Cell viability assay: 150,000 293T cells were seeded in a 6 well plate with 3 ml of DMEM medium. Each treatment was grown in DMEM medium based on RO or Neowater™. […] The cells were harvested following a 24 hour treatment with taxol and counted using trypan blue solution to detect dead cells.

[4] = Solubilization of taxol in DMSO or Neowater with 17% EtOH (Example 15); format: physicochemical; conditions: 0.5 mM; Neowater with 17% EtOH
Method: Solubilization: 0.5 mM Taxol solution was prepared (0.0017 gr in 4 ml) in either DMSO or Neowater™ with 17% EtOH. Absorbance was detected with a spectrophotometer.

[5] = Taxol in Neowater by slow solvent exchange, spectrophotometry and HPLC after storage (Example 18); format: physicochemical; conditions: taxol dispersed in Neowater, 6 month storage at −20° C., HPLC
Method: Solubilization: 0.5 mM Taxol solution was prepared (0.0017 gr in 4 ml). Taxol was dissolved in ethanol and exchanged to Neowater™ using an RT slow solvent exchange procedure which extended for 20 days. […] The solution was sterilized using a 0.2 μm filter. Taxol was separately prepared in DMSO (0.5 mM). Both solutions were kept at −20° C. Absorbance was detected with a spectrophotometer.

[6] = Solubilization of peptides in Neowater (Example 11); format: physicochemical; conditions: at 0.5 mM
Description: Spectrophotometric measurements were taken.

COc1cccc2c1C(=O)c1c(O)c3c(c(O)c1C2=O)C[C@@](O)(C(C)=O)C[C@@H]3O[C@H]1C[C@H](N)[C@H](O)[C@H](C)O1 [Daunorubicine, Cerubidine hydrochloride]
dissolving in Neowater and RO ([1]; 2 mg in 1 ml): dissolves without difficulty
solubility in water (known) [2]: known not to dissolve in water

CC1=C(/C=C/C(C)=C/C=C/C(C)=C/CO)C(C)(C)CCC1 [Retinol]
retinol in the solutions following filtration ([3]; 0.25% retinol in Neowater, 1.5% EtOH, filtered (0.44 and 0.2 filter)): less than 0.03125%
retinol concentration in EtOH with similar absorbance pattern ([3]; nominal 0.25% retinol in Neowater): ~0.03125%
retinol concentration in EtOH with similar absorbance pattern ([3]; nominal 0.5% retinol in Neowater): ~0.125%

CC(=O)O[C@H]1C(=O)[C@@]2(C)[C@H]([C@H](OC(=O)c3ccccc3)[C@]3(O)C[C@H](OC(=O)[C@H](O)[C@@H](NC(=O)c4ccccc4)c4ccccc4)C(C)=C1C3(C)C)[C@]1(OC(C)=O)CO[C@@H]1C[C@@H]2O [Taxol, Paclitaxel]
cytotoxic effect (293T cells): comprised a cytotoxic effect
dissolving in DMSO and Neowater [4]: dissolved both in DMSO and Neowater™
structural changes of the formulation on storage [5]: no structural changes

Daidzein—daunomycin conjugate [CD-Dau]
dissolving, Vial #3 (25% acetone) ([1]; 1.8 mg + 150 μl acetone + 450 μl Neowater): didn't dissolve very well
dissolving, Vial #4 (10% PEG+Neowater) ([1]; 1.8 mg + 600 μl 10% PEG): dissolved better than the CD-Dau in vial #1
dissolving, Vial #2 (100% acetone) ([1]; 1.8 mg + 600 μl acetone): suspended inside the acetone
dissolving, Vial #5 (acetone exchanged for Neowater) ([1]; 1.8 mg + 600 μl acetone + 600 μl Neowater, as the acetone evaporated): partially sediment to the bottom of the vial
dissolving, Vial #1 (100% Neowater) ([1]; 5 mg + 1.2 ml Neowater): sedimented after a few hours
solubility in water (known) [2]: known not to dissolve in water

PFPSYKLRPG-NH2
dissolving in Neowater [6]: dissolved
